The values below come from patent publication US20260250251A1, “HETEROCYCLIC COMPOUNDS AS PI3Ka INHIBITORS” (Pikavation Therapeutics, Inc., priority 2022, published 2026).

The test system of test [1] is SKBR3 (PIK3CA WT) cells, pSer473 AKT. Nature of the test: pS473 AKT assay in SKBR3 cells. Format: cell-based. The note with it: Homo sapiens, SK-BR-3, treated 2 h, read-out: SKBR3_IC50. How it is done: (§1) SKBR3 (PIK3CA WT), MCF7 (PIK3CA E545K), and T47D (PIK3CA H1047R) cells were cultured using 10-cm petri dishes with recommended medium. One day before the assay, cells were seeded in 96-well plates. After overnight incubation, cells were treated with different concentrations of PI3Kα inhibitors for 2 h. Cells were then fixed using 4% paraformaldehyde at room temperature for 20 min. Cells were aspirated with 4% paraformaldehyde, and washed using 1× regular phosphate buffered saline 3 times, 5 min each. Any residual phosphate buffered saline was aspirated and cells were blocked using 10% goat serum containing 1% bovine serum albumin and 0.3% Triton X-100 at room temperature for 1 h. Without any additional washing, primary antibodies (rabbit anti-pSer473 AKT) were diluted using blocking buffer and added at a final volume of 50 microliter per well. Assay plates with primary antibodies were maintained overnight at 4° C. Cells were washed using 1× regular phosphate buffered saline 3 times, 5 min each. After the final wash, cells were incubated with horseradish peroxidase-conjugated secondary antibodies (goat Anti-rabbit IgG) and diluted using the same blocking buffer at room temperature for 1 h. Cells were then washed thoroughly using 1× regular phosphate buffered saline 3 times, 5 min each, and any residual phosphate buffered saline was aspirated. Super-Signal ELISA Pico Chemiluminescent Substrate was then added at a final volume of 100 microliter per well. Plates were read on a i3x Multi-Mode Microplate Reader and IC50 values calculated using GraphPad Prism software.
(§2) Results of the assay described above are presented in Table A. “++++” indicates an IC50 less than 1000 nM; “+++” indicates an IC50 greater than or equal to 1000 nM but less than 5000 nM; “++” indicates an IC50 greater than or equal to 5000 nM but less than 10000 nM; and “+” indicates an IC50 greater than or equal to 10000 nM.

Test [2] deals with T47D (PIK3CA H1047R) cells, pSer473 AKT. Description: pS473 AKT assay in T47D cells. It counts as cell-based. The note with it: Homo sapiens, treated 2 h, read-out: T47D_IC50. How it is done:
as §1, §2

As to `Cn1nc(N)c2c(Oc3cc(F)ccc3Cl)c(NC(=O)c3cc(F)cc(C(F)(F)F)c3)cc(C#Cc3ccccn3)c21` [Example 37, N-(3-Amino-4-(2-chloro-5-fluorophenoxy)-1-methyl-7-(pyridin-2-ylethynyl)-1H-indazol-5-yl)-3-fluoro-5-(trifluoromethyl)benzamide], the values for the IC50 in test [1] and in test [2] were 1 to 5 µM and < 1 µM, respectively.
Consider `Cn1cnc(C#Cc2cc(NC(=O)c3cc(F)cc(C(F)(F)F)c3)c(Oc3cc(F)ccc3Cl)c3c(N)nn(C)c23)c1` [Example 50, N-(3-Amino-4-(2-chloro-5-fluorophenoxy)-1-methyl-7-((1-methyl-1H-imidazol-4-yl)ethynyl)-1H-indazol-5-yl)-3-fluoro-5-(trifluoromethyl)benzamide], for which the IC50 is 5 to 10 µM in test [1] and < 1 µM in test [2].
As for `Nc1n[nH]c2ccc(NC(=O)c3csc4ccccc34)c(Oc3cc(F)ccc3Cl)c12` [Example 18, N-(3-Amino-4-(2-chloro-5-fluorophenoxy)-1H-indazol-5-yl)benzo[b]thiophene-3-carboxamide], the IC50 in test [1] and in test [2] was < 1 µM each time.
As for `Nc1nn2c3c(cc(NC(=O)c4cc(F)cc(C(F)(F)F)c4)c(Oc4cc(F)ccc4Cl)c13)CNC2=O` [Example 68, N-(2-Amino-3-(2-chloro-5-fluorophenoxy)-8-oxo-7,8-dihydro-6H-pyrazolo[4,5,1-ij]quinazolin-4-yl)-3-fluoro-5-(trifluoromethyl)benzamide], the IC50 in test [1] and in test [2] was < 1 µM throughout.
`Nc1n[nH]c2ccc(NC(=O)c3cc(F)cc(C(F)(F)F)c3)c(Nc3cc(F)ccc3Cl)c12` [Example 4, N-(3-Amino-4-((2-chloro-5-fluorophenyl)amino)-1H-indazol-5-yl)-3-fluoro-5-(trifluoromethyl)benzamide]: the IC50 in test [1] is 5 to 10 µM; in test [2], < 1 µM.
The matching figures for `Cn1ccc(C#Cc2cc(NC(=O)c3cc(F)cc(C(F)(F)F)c3)c(Oc3cc(F)ccc3Cl)c3c(N)nn(C)c23)n1` [Example 48, N-(3-Amino-4-(2-chloro-5-fluorophenoxy)-1-methyl-7-((1-methyl-1H-pyrazol-3-yl)ethynyl)-1H-indazol-5-yl)-3-fluoro-5-(trifluoromethyl)benzamide]: 1 to 5 µM and < 1 µM.
The matching figures for `Cn1nc(N)c2c(Oc3cc(F)ccc3Cl)c(NC(=O)c3cc(F)cc(C(F)(F)F)c3)cc(Br)c21` [Example 25, N-(3-Amino-7-bromo-4-(2-chloro-5-fluorophenoxy)-1-methyl-1H-indazol-5-yl)-3-fluoro-5-(trifluoromethyl)benzamide]: < 1 µM and < 1 µM.
The matching figures for `Cn1nc(N)c2c(Oc3cc(F)ccc3Cl)c(NC(=O)c3cc(F)cc(C(F)(F)F)c3)cc(C#CC(C)(C)N)c21` [Example 40, N-(3-Amino-7-(3-amino-3-methylbut-1-yn-1-yl)-4-(2-chloro-5-fluorophenoxy)-1-methyl-1H-indazol-5-yl)-3-fluoro-5-(trifluoromethyl)benzamide]: < 1 µM and < 1 µM.
With `Nc1nn2c3c(cc(NC(=O)c4cc(F)cc(C(F)(F)F)c4)c(Oc4cc(F)ccc4Cl)c13)CN(C1CCC1)C2=O` [Example 72, N-(2-Amino-3-(2-chloro-5-fluorophenoxy)-7-cyclobutyl-8-oxo-7,8-dihydro-6H-pyrazolo[4,5,1-ij]quinazolin-4-yl)-3-fluoro-5-(trifluoromethyl)benzamide], the IC50 in test [1] and in test [2] was < 1 µM each time.
Turning to `CC(C)n1cc(-c2cc(NC(=O)c3cc(F)cc(C(F)(F)F)c3)c(Oc3cc(F)ccc3Cl)c3c(N)nn(C)c23)cn1` [Example 26, N-(3-Amino-4-(2-chloro-5-fluorophenoxy)-7-(1-isopropyl-1H-pyrazol-4-yl)-1-methyl-1H-indazol-5-yl)-3-fluoro-5-(trifluoromethyl)benzamide], the IC50 in test [1] was 1 to 5 µM; in test [2], < 1 µM.
For `Nc1n[nH]c2ccc(NC(=O)N3CC(O)(C(F)(F)F)c4cc(F)ccc43)c(Oc3cc(F)ccc3Cl)c12` (stereo not shown) [Example 19, N-(3-Amino-4-(2-chloro-5-fluorophenoxy)-1H-indazol-5-yl)-5-fluoro-3-hydroxy-3-(trifluoromethyl)indoline-1-carboxamide] the same measures were 1 to 5 µM and < 1 µM.
The matching figures for `Nc1nn2c(=O)c3c(c4cc(NC(=O)c5cc(F)cc(C(F)(F)F)c5)c(Oc5cc(F)ccc5Cl)c1c42)CCCC3` [Example 75, N-(4-Amino-3-(2-chloro-5-fluorophenoxy)-7-oxo-8,9,10,11-tetrahydro-7H-pyrazolo[4,5,1-de]phenanthridin-2-yl)-3-fluoro-5-(trifluoromethyl)benzamide]: < 1 µM and < 1 µM.
With `CCn1nc(N)c2c(Oc3cc(F)ccc3Cl)c(NC(=O)c3cc(F)cc(C(F)(F)F)c3)ccc21` [Example 8, N-(3-Amino-4-(2-chloro-5-fluorophenoxy)-1-ethyl-1H-indazol-5-yl)-3-fluoro-5-(trifluoromethyl)benzamide], the IC50 in test [1] and in test [2] was < 1 µM throughout.
For the molecule `Cn1nc(N)c2c(Oc3cc(F)ccc3Cl)c(NC(=O)c3cncc(C(F)(F)F)c3)cc(Cl)c21` [Example 62, N-(3-Amino-7-chloro-4-(2-chloro-5-fluorophenoxy)-1-methyl-1H-indazol-5-yl)-5-(trifluoromethyl)nicotinamide], the results for the IC50 in test [1] and in test [2] were 1 to 5 µM and < 1 µM, respectively.
For `CNC(=O)Cn1nc(N)c2c(Oc3cc(F)ccc3Cl)c(NC(=O)c3cc(F)cc(C(F)(F)F)c3)ccc21` [Example 9, N-(3-Amino-4-(2-chloro-5-fluorophenoxy)-1-(2-(methylamino)-2-oxoethyl)-1H-indazol-5-yl)-3-fluoro-5-(trifluoromethyl)benzamide] the same measures were 1 to 5 µM and < 1 µM.
Regarding `Nc1nn(CCO)c2c(C#Cc3ccccn3)cc(NC(=O)c3cc(F)cc(C(F)(F)F)c3)c(Oc3cc(F)ccc3Cl)c12` [Example 67, N-(3-Amino-4-(2-chloro-5-fluorophenoxy)-1-(2-hydroxyethyl)-7-(pyridin-2-ylethynyl)-1H-indazol-5-yl)-3-fluoro-5-(trifluoromethyl)benzamide], the results for the IC50 in test [1] and in test [2] were 1 to 5 µM and < 1 µM, respectively.
The matching figures for `Nc1n[nH]c2ccc(NC(=O)c3cc(F)cc(C(F)(F)F)c3)c(Cc3cc(F)ccc3Cl)c12` [Example 5, N-(3-Amino-4-(2-chloro-5-fluorobenzyl)-1H-indazol-5-yl)-3-fluoro-5-(trifluoromethyl)benzamide]: 5 to 10 µM and 1 to 5 µM.
For `Cn1nc(N)c2c(Oc3cc(F)ccc3Cl)c(NC(=O)c3cccc(C(F)(F)F)c3)cc(Cl)c21` [Example 61, N-(3-Amino-7-chloro-4-(2-chloro-5-fluorophenoxy)-1-methyl-1H-indazol-5-yl)-3-(trifluoromethyl)benzamide] the same measures were 5 to 10 µM and < 1 µM.
For `Cn1nc(N)c2c(Oc3cc(F)ccc3Cl)c(NC(=O)c3cc(F)cc(C(F)(F)F)c3)cc(Cl)c21` [Example 24, N-(3-Amino-7-chloro-4-(2-chloro-5-fluorophenoxy)-1-methyl-1H-indazol-5-yl)-3-fluoro-5-(trifluoromethyl)benzamide] the same measures were < 1 µM and < 1 µM.
Consider `CN(C)c1nn(C)c2c(Cl)cc(NC(=O)c3cc(F)cc(C(F)(F)F)c3)c(Oc3cc(F)ccc3Cl)c12` [Example 54, N-(7-chloro-4-(2-chloro-5-fluorophenoxy)-3-(dimethylamino)-1-methyl-1H-indazol-5-yl)-3-fluoro-5-(trifluoromethyl)benzamide], for which the IC50 in test [1] and in test [2] was ≥ 10 µM in each case.
On to `Cn1nc(N)c2c(Oc3cc(F)ccc3Cl)c(NC(=O)c3cc(F)cc(C(F)(F)F)c3)cc(N3CCn4ncnc4C3)c21` [Example 55, N-(3-Amino-4-(2-chloro-5-fluorophenoxy)-7-(5,6-dihydro-[1,2,4]triazolo[1,5-a]pyrazin-7(8H)-yl)-1-methyl-1H-indazol-5-yl)-3-fluoro-5-(trifluoromethyl)benzamide], for which the IC50 is 1 to 5 µM in test [1] and < 1 µM in test [2].
The matching figures for `Cn1nc(N)c2c(Oc3cc(F)ccc3Cl)c(NC(=O)c3cc(F)cc(C(F)(F)F)c3)ccc21` [Example 7, N-(3-amino-4-(2-chloro-5-fluorophenoxy)-1-methyl-1H-indazol-5-yl)-3-fluoro-5-(trifluoromethyl)benzamide]: < 1 µM and < 1 µM.
On to `CC(=O)N1CCCCC1C#Cc1cc(NC(=O)c2cc(F)cc(C(F)(F)F)c2)c(Oc2cc(F)ccc2Cl)c2c(N)nn(C)c12` (stereo not shown) [Example 79, N-(7-((1-Acetylpiperidin-2-yl)ethynyl)-3-amino-4-(2-chloro-5-fluorophenoxy)-1-methyl-1H-indazol-5-yl)-3-fluoro-5-(trifluoromethyl)benzamide], for which the IC50 in test [1] is 1 to 5 µM; in test [2], < 1 µM.
